# Where “and” joins values, the source holds several entries; their conditions need not be identical. Equal entries are not always repeated. Where two headings read alike, the source gives them in different places.
# Assays:
# M. tuberculosis H37Rv [1] = test: microbe, parasite or virus in culture; assay type: cell-based, Mycobacterium tuberculosis
# M. tuberculosis H37Ra = test: microbe, parasite or virus in culture; assay type: cell-based, Mycobacterium tuberculosis; conditions: Mycobacterium tuberculosis, H37RA
# [2] = tested on: XDR M. tuberculosis (KMRC 00203–00197); assay type: cell-based, Mycobacterium tuberculosis; conditions: for log reduction (CFU): 7 days
# XDR M. tuberculosis [3] = assay type: cell-based, Mycobacterium tuberculosis
# M. tuberculosis H37Rv [4] = test: Luminescence-based microbial cell viability assay; parameters: species or system Mycobacterium tuberculosis; conditions: for RLU/50ul (replicates1-3), single values / RLU/ml (×100) / RLU/50ul (average): Fig 2C
# XDR M. tuberculosis [5] = test: Luminescence-based microbial cell viability assay; parameters: species or system Mycobacterium tuberculosis
# M. tuberculosis H37Rv [6] = assay type: cell-based, Mycobacterium tuberculosis; conditions: for CFU/ml (average) / CFU/ml, single values / Intracellular M. tuberculosis, % (Drug Free = 100.0): Fig 3B, H37Rv
# M. tuberculosis H37Rv [7] = assay type: in vivo, BALB/c mice; parameters: Efficacy in BALB/C mouse model of pulmonary tuberculosis, Average / Efficacy in BALB/C mouse model of pulmonary tuberculosis, values of mice 1-6: unit not given here
# in vitro [8] = assay type: cell-based; conditions: human
# How it was run: (§1)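 Cells are tested for cytotoxicity using the MTT assay and, in parallel, the WST-1 cell viability assay as previously reported.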
# in vitro [9] = assay type: cell-based, murine; conditions: mouse
# How it was run: as §1
# intestinal microbiome = test: Gut microbiome, 16s rRNA gene-based metagenomics analysis of feces; assay type: in vivo, BALB/c mice; conditions: 30 mg/kg oral once a day for 7 days, BALB/c mice, feces
# How it was run: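 Female BALB/c mice, six weeks old (n=6/group), received drug orally at 30 mg/kg once daily for 7 days in corn oil; vehicle controls received corn oil alone. Fecal DNA V4 16S rRNA gene amplicons were sequenced 300-bp paired-end and analyzed on EzBioCloud.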
# M. arupense = test: microbe, parasite or virus in culture; assay type: cell-based, Mycobacterium arupense; conditions: Mycolicibacter arupensis
# M. aubagnense = test: microbe, parasite or virus in culture; assay type: cell-based, Mycobacterium aubagnense; conditions: Mycolicibacterium aubagnense
# M. bovis = test: microbe, parasite or virus in culture; assay type: cell-based; conditions: Mycobacterium tuberculosis variant bovis
# M. chitae = test: microbe, parasite or virus in culture; assay type: cell-based, Mycobacterium chitae; conditions: Mycolicibacterium chitae
# M. colombiense = test: microbe, parasite or virus in culture; assay type: cell-based; conditions: Mycobacterium colombiense
# M. goodie = test: microbe, parasite or virus in culture; assay type: cell-based; conditions: Mycobacterium
# M. gordonae = test: microbe, parasite or virus in culture; assay type: cell-based; conditions: Mycobacterium gordonae
# M. heraklionease = test: microbe, parasite or virus in culture; assay type: cell-based; conditions: Mycobacterium
# M. intracellulare = test: microbe, parasite or virus in culture; assay type: cell-based; conditions: Mycobacterium intracellulare
# M. kansasii = test: microbe, parasite or virus in culture; assay type: cell-based; conditions: Mycobacterium kansasii
# M. kyorinense = test: microbe, parasite or virus in culture; assay type: cell-based; conditions: Mycobacterium kyorinense
# M. marseiliense = test: microbe, parasite or virus in culture; assay type: cell-based; conditions: Mycobacterium
# M. massiliense = test: microbe, parasite or virus in culture; assay type: cell-based, Mycobacterium massiliense; conditions: Mycobacteroides abscessus
# M. neoaurum = test: microbe, parasite or virus in culture; assay type: cell-based, Mycobacterium neoaurum; conditions: Mycolicibacterium neoaurum
# M. xenopi = test: microbe, parasite or virus in culture; assay type: cell-based; conditions: Mycobacterium xenopi
structure (smiles),measurement,setting,value
"CCCCOc1ccc2cc(CN3C(=O)CC[C@H]3C(=O)OC)c3cc(OC)c(OC)cc3c2c1 [PP2S, Methyl (S)-1-((3-butoxy-6,7-dimethoxyphenanthren-9-yl)methyl)-5-oxopyrrolidine-2-carboxylate]",MIC,M. tuberculosis H37Rv [1],0.4 µg/mL
same,in vitro antitubercular activities (S-form vs R-form),M. tuberculosis H37Rv [1],had in vitro antitubercular activities
same,MIC,"M. tuberculosis H37Rv [1]; Mycobacterium tuberculosis, H37RV, read-out: MIC",0.8 µg/mL
same,MIC,M. tuberculosis H37Ra,0.4 µg/mL
same,CFU (log),[2],3.65 and 3.73
same,"CFU (replicates1-3), single values",[2],5500 CFU and 1100 CFU and 2900 CFU and 2700 CFU and 6500 CFU and 5100 CFU and 5400 CFU and 6100 CFU and 5320 CFU and 9100 CFU and 3200 CFU (2×) and 3600 CFU and 3300 CFU and 3400 CFU and 2100 CFU and 12800 CFU and 8170 CFU
same,log reduction (CFU),[2]; at 0.8 μg/ml,1.8
same,log reduction (CFU),[2]; at 1.6 μg/ml,1.9
same,"RFU/200 μl (replicates1-3), single values",XDR M. tuberculosis [3],9970 RFU/200 μl and 10020 RFU/200 μl and 9360 RFU/200 μl and 9560 RFU/200 μl and 10400 RFU/200 μl and 10740 RFU/200 μl and 10810 RFU/200 μl and 10890 RFU/200 μl and 9990 RFU/200 μl and 20170 RFU/200 μl and 19980 RFU/200 μl and 20200 RFU/200 μl and 19820 RFU/200 μl and 20260 RFU/200 μl and 22530 RFU/200 μl and 22620 RFU/200 μl and 22580 RFU/200 μl and 20070 RFU/200 μl and 37150 RFU/200 μl and 37370 RFU/200 μl and 42810 RFU/200 μl and 39680 RFU/200 μl and 39960 RFU/200 μl and 41160 RFU/200 μl and 41210 RFU/200 μl and 41220 RFU/200 μl and 37280 RFU/200 μl
same,concentration with significant antitubercular effect,XDR M. tuberculosis [3],0.39 µg/mL
same,"RLU/50ul (replicates1-3), single values",M. tuberculosis H37Rv [4]; drug conc. 0.39,1160 RLU/50ul and 1020 RLU/50ul and 2640 RLU/50ul and 2720 RLU/50ul and 2990 RLU/50ul and 1770 RLU/50ul and 1810 RLU/50ul and 1690 RLU/50ul and 1170 RLU/50ul
same,RLU/ml (×100),M. tuberculosis H37Rv [4]; drug conc. 0.39,377.1 RLU/ml (×100)
same,RLU/50ul (average),"M. tuberculosis H37Rv [4]; drug conc. 0.39, average of each replicate set",2783 RLU/50ul and 1757 RLU/50ul and 1117 RLU/50ul
same,"RLU/50ul (replicates1-3), single values",M. tuberculosis H37Rv [4]; drug conc. 0.78,410 RLU/50ul and 270 RLU/50ul and 850 RLU/50ul (2×) and 870 RLU/50ul and 620 RLU/50ul and 650 RLU/50ul and 580 RLU/50ul and 390 RLU/50ul
same,RLU/ml (×100),M. tuberculosis H37Rv [4]; drug conc. 0.78,122.0 RLU/ml (×100)
same,RLU/50ul (average),"M. tuberculosis H37Rv [4]; drug conc. 0.78, average of each replicate set",857 RLU/50ul and 617 RLU/50ul and 357 RLU/50ul
same,"RLU/50ul (replicates1-3), single values",M. tuberculosis H37Rv [4]; drug conc. 1.56,120 RLU/50ul and 160 RLU/50ul and 360 RLU/50ul and 370 RLU/50ul and 420 RLU/50ul and 110 RLU/50ul and 130 RLU/50ul (2×) and 170 RLU/50ul
same,RLU/ml (×100),M. tuberculosis H37Rv [4]; drug conc. 1.56,43.8 RLU/ml (×100)
same,RLU/50ul (average),"M. tuberculosis H37Rv [4]; drug conc. 1.56, average of each replicate set",383 RLU/50ul and 137 RLU/50ul (2×)
same,concentration with significant antitubercular effect,M. tuberculosis H37Rv [4]; luminescence-based assay,1.56 µg/mL and 0.78 µg/mL
same,"RLU/50ul (replicates1-3), single values",XDR M. tuberculosis [5],50 RLU/50ul and 140 RLU/50ul and 80 RLU/50ul and 90 RLU/50ul (2×) and 120 RLU/50ul and 70 RLU/50ul and 130 RLU/50ul and 40 RLU/50ul and 260 RLU/50ul and 290 RLU/50ul and 430 RLU/50ul and 420 RLU/50ul and 460 RLU/50ul and 330 RLU/50ul and 390 RLU/50ul and 410 RLU/50ul and 220 RLU/50ul and 640 RLU/50ul and 720 RLU/50ul and 540 RLU/50ul and 550 RLU/50ul and 580 RLU/50ul and 450 RLU/50ul (2×) and 590 RLU/50ul and 630 RLU/50ul
same,concentration with significant antitubercular effect,XDR M. tuberculosis [5],0.39 µg/mL
same,CFU/ml (average),M. tuberculosis H37Rv [6]; drug conc. 1.6,26807 CFU/ml
same,"CFU/ml, single values",M. tuberculosis H37Rv [6]; drug conc. 1.6,23800 CFU/ml and 25500 CFU/ml and 31120 CFU/ml
same,"Intracellular M. tuberculosis, % (Drug Free = 100.0)",M. tuberculosis H37Rv [6]; drug conc. 1.6,79.7%
same,CFU/ml (average),M. tuberculosis H37Rv [6]; drug conc. 3.1,22130 CFU/ml
same,"CFU/ml, single values",M. tuberculosis H37Rv [6]; drug conc. 3.1,17950 CFU/ml and 21400 CFU/ml and 27040 CFU/ml
same,"Intracellular M. tuberculosis, % (Drug Free = 100.0)",M. tuberculosis H37Rv [6]; drug conc. 3.1,65.8%
same,CFU/ml (average),M. tuberculosis H37Rv [6]; drug conc. 6.3,12950 CFU/ml
same,"Intracellular M. tuberculosis, % (Drug Free = 100.0)",M. tuberculosis H37Rv [6]; drug conc. 6.3,38.5%
same,CFU/ml (average),M. tuberculosis H37Rv [6]; drug conc. 12.5,7367 CFU/ml
same,"Intracellular M. tuberculosis, % (Drug Free = 100.0)",M. tuberculosis H37Rv [6]; drug conc. 12.5,21.9%
same,CFU/ml (average),M. tuberculosis H37Rv [6]; drug conc. 25,640 CFU/ml
same,"Intracellular M. tuberculosis, % (Drug Free = 100.0)",M. tuberculosis H37Rv [6]; drug conc. 25,1.9%
same,growth of M. tuberculosis in macrophages (CFU),"M. tuberculosis H37Rv [6]; H37Rv in Raw 264.7 cells, 3 days, concentration-dependent",significantly inhibited the growth
same,"Efficacy in BALB/C mouse model of pulmonary tuberculosis, values of mice 1-6","M. tuberculosis H37Rv [7]; Fig 4C, group dose 30",3500000 and 3600000 and 2100000 and 2300000 and 3900000 and 3400000
same,"Efficacy in BALB/C mouse model of pulmonary tuberculosis, Average","M. tuberculosis H37Rv [7]; Fig 4C, group dose 30, 6 mice",3133333
same,"Efficacy in BALB/C mouse model of pulmonary tuberculosis, Average","M. tuberculosis H37Rv [7]; Fig 4C, group dose 100, 6 mice",550000
same,bacterial burden in the lungs compared to control group,"M. tuberculosis H37Rv [7]; mouse, in vivo, po",significantly reduced
same,CC50,in vitro [8]; A549,> 500 µg/mL
same,CC50,in vitro [8]; HEK-293,> 500 µg/mL
same,CC50,in vitro [8]; SH-SY5Y,> 500 µg/mL
same,CC50,in vitro [8]; THP-1,> 500 µg/mL
same,CC50,in vitro [9]; L929,> 500 µg/mL
same,CC50,in vitro [9]; Raw264.7,> 500 µg/mL
same,"beta set-significance analysis, pair-wise comparison of gut microbiome",intestinal microbiome,not significant
same,difference in phylum or class level taxa compared to drug-free group,intestinal microbiome,did not significantly differ
same,phylogenetic diversity compared to drug-free control group,intestinal microbiome,no significant change
same,MIC,M. arupense,> 100 µg/mL
same,MIC,M. aubagnense,> 100 µg/mL
same,MIC,M. bovis,0.8 µg/mL
same,MIC,M. chitae,> 100 µg/mL
same,MIC,M. colombiense,> 100 µg/mL
same,MIC,M. goodie,> 100 µg/mL
same,MIC,M. gordonae,> 100 µg/mL
same,MIC,M. heraklionease,> 100 µg/mL
same,MIC,M. intracellulare,> 100 µg/mL
same,MIC,M. kansasii,> 100 µg/mL
same,MIC,M. kyorinense,> 100 µg/mL
same,MIC,M. marseiliense,> 100 µg/mL
same,MIC,M. massiliense,> 100 µg/mL
same,MIC,M. neoaurum,> 100 µg/mL
same,MIC,M. xenopi,> 100 µg/mL
